Laboratory results taken from US20250076286A1, “GENERATION OF NEURAL ORGANIZER ORGANOIDS AND MIDLINE ASSEMBLOIDS FROM HUMAN PLURIPOTENT STEM CELLS” (The Board of Trustees of the Leland Stanford Junior …, priority 2022, published 2025).

How the values were obtained:
Type in all cases: cell-based, human
[1] = system: hFpO-hNtO midline assembloids; test: hFpO-induced ventralization of hNtO in midline assembloids (immunofluorescence staining)
Experimental: Cryoprotection and immunofluorescence staining. hFpO, hNtO and midline assembloids were fixed in 4% paraformaldehyde (PFA)/phosphate buffered saline (PBS) for 1-2 hours on a rocker at 4° C. They were then washed in PBS and transferred to 30% sucrose/PBS overnight until the organoids/assembloids sink in the solution. Subsequently, they were rinsed in optimal cutting temperature (OCT) compound (Tissue-Tek OCT Compound 4583, Sakura Finetek) and embedded. For immunofluorescence staining, 20 μm-thick sections were cut using a Leica Cryostat (Leica, CM1850). Cryosections were blocked in 0.3% Triton X-100 (Millipore Sigma, T9284-100ML), 1% BSA diluted in PBS for 1 h at room temperature. The sections were then incubated overnight at 4° C. with primary antibodies diluted in PBS containing 1% BSA, 0.1% Triton X-100. Samples were then rinsed 3× and incubated for 30 minutes in 1% BSA, 0.1% Triton X-100. Cryosections were then incubated with secondary antibodies in block 1 h. The following primary antibodies were used for staining: anti-FOXA2 (rabbit, Abcam), anti-NKX2.2 (mouse, DSHB, sc-517261), anti-NKX6.1 (mouse, DSHB), LMX1A (rabbit, HPA030088, Atlas antibodies), TFAP2A. Alexa Fluor dyes (Life Technologies) were used at 1:1000 dilution, and nuclei were visualized with Hoechst 33258 (Life Technologies, H3549). Cryosections were mounted for microscopy on glass slides using Aquamount (Polysciences, 18606), and imaged on a Zeiss M1 Axioscope or EVOS microscope. Images were processed in Fiji (NIH).
Generation of neural tube organoids or organoids (hNtO) and midline assembloids (hNtO-hFpO). To generate hNtO, organoids were generated using the Aggrewell method previously described. The 20% KOSR medium was changed every day and supplemented with dorsomorphin and SB-431542 for 5 Days. On day 6 in suspension, the organoids were transferred to 20% KOSR supplemented with EGF, FGF2, CHIR and retinoic acid. On day 7, hNtO were dissociated and seeded as previously described in ultra-low attachment 96 well plates. […]

[2] = system: hiPSC cell-derived floor plate organoids (hFpO); test: Quantification of FOXA2 positive floor plate cells by immunofluorescence microscopy; conditions: hFpO induced with 5 μM SAG day 1 to day 6 plus dual SMAD inhibitors, EGF, FGF2, RA; controls without SAG showed no induction
Experimental: For the generation of 3D floor plate organoids, hiPSC cells were incubated with Accutase® (Innovative Cell Technologies, AT104) at 37° C. for 7 min and dissociated into single cells. To obtain uniformly sized organoids, AggreWell-800 (STEMCELL Technologies, 34815) containing 300 microwells was used. Approximately 3×10^6 single cells were added per AggreWell-800 well in Essential 8 medium supplemented with the ROCK inhibitor Y27632 (10 mM, Selleckchem, S1049), centrifuged at 100 g for 3 min to capture the cells in the microwells, and incubated at 37° C. with 5% CO2. After 24 h, organoids consisting of approximately 10,000 cells were collected from each microwell by pipetting medium in the well up and down with a cut P1000 pipet tip and transferred into ultra-low attachment plastic dishes (Corning, 3262) in 20% knockout serum medium (KOSR) supplemented with two SMAD pathway inhibitors dorsomorphin (2.5 mM, Sigma-Aldrich, P5499) and SB-431542 (10 mM, R&D Systems, 1614) for the first 5 days.
For floor plate induction: SAG, FGF2, and retinoic acid was added to the medium starting on day 1 and CHIR was added to the media beginning on day 2 until day 7. The 20% KOSR medium was changed every day and supplemented with the respective small molecules and growth factors (FIG. 1). […]

[3] = system: dorsal interneuron axon extension in dhSpOs; test: Axon extension response of dhSpO dorsal interneurons to purified FP-secreted proteins; conditions: for sensitivity to repulsive axon guidance cue / chemorepulsion: ROBO3 KO neurites
Experimental: Differentiation of dorsal human spinal organoids (hSpO) and midline assembloids (dhSpO-hFpO-dhSpO) to study crossing of commissural projections. Aggregates of hiPSC cells were generated and collected as previously described in hFpO and hNtO protocols and transferred to poly-HEMA coated 10 cm dishes in Essential 6 medium (Thermo Fisher Scientific, A1516401) supplemented with two SMAD pathway inhibitors-dorsomorphin (2.5 mM, Sigma-Aldrich, P5499) and SB-431542 (10 mM, R&D Systems, 1614). For the first 5 d, Essential 6 medium was changed every day and supplemented with dorsomorphin and SB-431542. To generate hSpO, on day 6 in suspension the organoids were transferred to neural medium containing Neurobasal™-A Medium (Thermo Fisher Scientific, 10888022), B-27™ Supplement, minus vitamin A (Thermo Fisher Scientific, 12587010), GlutaMAX™ Supplement (1:100, Thermo Fisher Scientific, 35050079), Penicillin-Streptomycin (1:100, Thermo Fisher Scientific, 15070063), and supplemented with EGF, CHIR and RA. From day 19, to promote differentiation of the neural progenitors into neurons, the neural medium was supplemented with brain-derived neurotrophic factor (BDNF; 20 ng/ml, PeproTech, 450-02), IGF, AA, and 5′-cyclic monophosphate sodium salt (cAMP; 100 mM, Millipore Sigma, D0627). From this point on medium was changed every other day.
To validate the functionality of floor plate mechanisms that coordinate midline crossing, =isogenic KO hiPS cell lines targeting ROBO3 (an essential gene for midline crossing) with the CRISPR/Cas9 system were generated. Three sgRNAs targeting an early exon of a specific gene were designed and synthesized by Synthego to induce one deletion. Human iPSCs were dissociated with accutase and 0.5 million cells were mixed with 300 pmol sgRNAs and 40 pmol Cas9 protein (Synthego, SpCas9 2NLS Nuclease ([…])). Nucleofection was performed using the P3 Primary Cell 4D-NucleofectorTMX Kit L (Lonza, V4XP-3032), a 4D-nucleofector core unit and the X unit (Lonza) (program CA-137). […]

[4] = cyclopamine added the same day of fusion and in subsequent feeds, hFpO-hNtO assembloid

With `CC1=C2C[C@H]3[C@@H](CC=C4C[C@@H](O)CC[C@@]43C)[C@@H]2CC[C@]12O[C@@H]1C[C@H](C)CN[C@H]1[C@H]2C` [cyclopamine] the “FOXA2 expression in hFpO” value [1, 4] was “abolished”, the “NKX2.2 induction in hNtO” value [1, 4] was “abolished” and the “hFpO induced ventralization (NKX2.2, FOXA2, NKX6.1)” value ([1]; in the presence of cyclopamine, FIG. 5E-G) was “completely abolished”.

`CNC1CCC(N(Cc2cccc(-c3ccncc3)c2)C(=O)c2sc3ccccc3c2Cl)CC1` (stereo not shown) [SAG] was tested, and the “percent of positive floor plate cells (FOXA2 marker)” value [2] was 90-99%.

B1: SLIT-2: repulsive axon guidance cue, purified FP-secreted protein (protein, UniProt O94813 31-1529, looked up)
Slit homolog 2 protein: QCSCSGSTVDCHGLALRSVPRNIPRNTERLDLNGNNITRITKTDFAGLRHLRVLQLMENKISTIERGAFQDLKELERLRLNRNHLQLFPELLFLGTAKLYRLDLSENQIQAIPRKAFRGAVDIKNLQLDYNQISCIEDGAFRALRDLEVLTLNNNNITRLSVASFNHMPKLRTFRLHSNNLYCDCHLAWLSDWLRQRPRVGLYTQCMGPSHLRGHNVAEVQKREFVCSGHQSFMAPSCSVLHCPAACTCSNNIVDCRGKGLTEIPTNLPETITEIRLEQNTIKVIPPGAFSPYKKLRRIDLSNNQISELAPDAFQGLRSLNSLVLYGNKITELPKSLFEGLFSLQLLLLNANKINCLRVDAFQDLHNLNLLSLYDNKLQTIAKGTFSPLRAIQTMHLAQNPFICDCHLKWLADYLHTNPIETSGARCTSPRRLANKRIGQIKSKKFRCSAKEQYFIPGTEDYRSKLSGDCFADLACPEKCRCEGTTVDCSNQKLNKIPEHIPQYTAELRLNNNEFTVLEATGIFKKLPQLRKINFSNNKITDIEEGAFEGASGVNEILLTSNRLENVQHKMFKGLESLKTLMLRSNRITCVGNDSFIGLSSVRLLSLYDNQITTVAPGAFDTLHSLSTLNLLANPFNCNCYLAWLGEWLRKKRIVTGNPRCQKPYFLKEIPIQDVAIQDFTCDDGNDDNSCSPLSRCPTECTCLDTVVRCSNKGLKVLPKGIPRDVTELYLDGNQFTLVPKELSNYKHLTLIDLSNNRISTLSNQSFSNMTQLLTLILSYNRLRCIPPRTFDGLKSLRLLSLHGNDISVVPEGAFNDLSALSHLAIGANPLYCDCNMQWLSDWVKSEYKEPGIARCAGPGEMADKLLLTTPSKKFTCQGPVDVNILAKCNPCLSNPCKNDGTCNSDPVDFYRCTCPYGFKGQDCDVPIHACISNPCKHGGTCHLKEGEEDGFWCICADGFEGENCEVNVDDCEDNDCENNSTCVDGINNYTCLCPPEYTGELCEEKLDFCAQDLNPCQHDSKCILTPKGFKCDCTPGYVGEHCDIDFDDCQDNKCKNGAHCTDAVNGYTCICPEGYSGLFCEFSPPMVLPRTSPCDNFDCQNGAQCIVRINEPICQCLPGYQGEKCEKLVSVNFINKESYLQIPSAKVRPQTNITLQIATDEDSGILLYKGDKDHIAVELYRGRVRASYDTGSHPASAIYSVETINDGNFHIVELLALDQSLSLSVDGGNPKIITNLSKQSTLNFDSPLYVGGMPGKSNVASLRQAPGQNGTSFHGCIRNLYINSELQDFQKVPMQTGILPGCEPCHKKVCAHGTCQPSSQAGFTCECQEGWMGPLCDQRTNDPCLGNKCVHGTCLPINAFSYSCKCLEGHGGVLCDEEEDLFNPCQAIKCKHGKCRLSGLGQPYCECSSGYTGDSCDREISCRGERIRDYYQKQQGYAACQTTKKVSRLECRGGCAGGQCCGPLRSKRRKYSFECTDGSSFVDEVEKVVKCGCTRCVS
In the case of B1, the “sensitivity to repulsive axon guidance cue / chemorepulsion” value [3] is reported as “increased sensitivity and chemorepulsion”, the “sensitivity to repulsive axon guidance cue / chemorepulsion” value ([3]; listed as Slit-2) is reported as “Increased sensitivity” and the “sensitivity to repulsive axon guidance cue” value ([3]; wildtype dorsal interneurons) is reported as “largely insensitive”.
